Reference: PMC10572855, “Phenotypic Test of Benzo[4,5]imidazo[1,2-c]pyrimidinone-Based Nucleoside and Non-Nucleoside Derivatives against DNA and RNA Viruses, Including Coronaviruses” (International Journal of Molecular Sciences, 2023)

Experiments:
RSV (Long) = assay: Cytopathic effect reduction, RSV (Long); assay type: cell-based, Respiratory syncytial virus; conditions: human respiratory syncytial virus; reduction of virus-induced cytopathic effect by 50%; virus input 100 TCID50; read-out: Antiviral Activity (EC50) RSV Long
[1] = molecular target: SARS-CoV-2 RdRp (nsp12, nsp7-nsp8) (Severe acute respiratory syndrome coronavirus 2, UniProt P0DTD1); assay: In vitro transcription assay with SARS-CoV-2 RdRp; assay type: biochemical; conditions: RdRp 1 µM, RNA substrate 25 nM, 100 µM NTPs, 30 °C; read-out: IC50, inhibition of RdRp activity (RNA primer extension)
TK- VZV strain 07-1 [2] = assay: microbe, parasite or virus in culture; conditions: Human alphaherpesvirus 3, HEL 299, read-out: Antiviral Activity (EC50) TK− VZV Strain 07-1
in vitro = conditions: green monkey
[3] = test system: SARS-CoV-2 NVDBB-2220 (UK); assay: Cytopathic effect reduction, SARS-CoV-2 NVDBB-2220 (UK) in Vero cells; assay type: cell-based; conditions: Severe acute respiratory syndrome coronavirus 2, CPE reduced by 50%, 100 TCID50, read-out: Antiviral Activity (EC50) NVDBB-2220 (UK)
SARS-CoV-2 (all strains) = assay: Cytopathic effect reduction, various SARS-CoV-2 strains in Vero cells; assay type: cell-based; conditions: Severe acute respiratory syndrome coronavirus 2, read-out: EC50 against all SARS-CoV-2 strains
[4] = test system: SARS-CoV-2 UC-1074 (Wuhan); assay: Cytopathic effect reduction, SARS-CoV-2 UC-1074 (Wuhan) in Vero cells; assay type: cell-based; conditions: Severe acute respiratory syndrome coronavirus 2, UC1074, CPE reduced by 50%, 100 TCID50, read-out: Antiviral Activity (EC50) UC-1074 (Wuhan)
HEL299 cells = conditions: minimum cytotoxic concentration, microscopically detectable alteration of cell morphology
Experimental: (§1) Cells were seeded at a rate of 5 × 10^3 cells/well into 96-well plates and allowed to proliferate for 24 h. Then, a medium containing different concentrations of the test compounds, starting at 100 mM, was added. After 3 days of incubation at 37 °C, the cell count was determined with a Beckman Coulter counter or, alternatively, cell viability was determined with the colorimetric formazan-based MTS assay. […] The cytotoxic effects of the compounds were also assessed by evaluating the MCC (minimum cytotoxic concentration that causes a microscopically detectable alteration of cell morphology).

[5] = test system: SARS-CoV-2 860-J1 (Delta); assay: Cytopathic effect reduction, SARS-CoV-2 860-J1 (Delta) in Vero cells; assay type: cell-based; conditions: Severe acute respiratory syndrome coronavirus 2, CPE reduced by 50%, 100 TCID50, read-out: Antiviral Activity (EC50) 860-J1 (Delta)
HCoV 229E = assay: Cytopathic effect reduction, HCoV 229E; assay type: cell-based, Human coronavirus 229E; conditions: Human coronavirus 229E; reduction of virus-induced cytopathic effect by 50%; virus input 100 TCID50; read-out: Antiviral Activity (EC50) HCoV 229E
HCoV OC43 = assay: Cytopathic effect reduction, HCoV OC43; assay type: cell-based, Human coronavirus OC43; conditions: Betacoronavirus 1, OC43; reduction of virus-induced cytopathic effect by 50%; virus input 100 TCID50; read-out: Antiviral Activity (EC50) HCoV OC43
TK+ VZV strain OKA = assay: microbe, parasite or virus in culture; assay type: cell-based, Varicella zoster virus; conditions: Human alphaherpesvirus 3, HEL 299, read-out: Antiviral Activity (EC50) TK+ VZV Strain OKA
[6] = Cytotoxicity in Huh7 cells, MTS assay; assay type: cell-based, Human; conditions: human, Huh7 cells, cell growth reduced by 50%
Experimental: as §1

HCoV NL63 = assay: Cytopathic effect reduction, HCoV NL63; assay type: cell-based, Human coronavirus NL63; conditions: Human coronavirus NL63; reduction of virus-induced cytopathic effect by 50%; virus input 100 TCID50; read-out: Antiviral Activity (EC50) HCoV NL63
[7] = Cytotoxicity in HEL299 cells, MTS assay; assay type: cell-based, Human; conditions: human, HEL299 cells, cell growth reduced by 50%
Experimental: as §1

[8] = molecular target: T1, SARS-CoV-2 N-protein and stem-loop vgRNA fragment condensates (Severe acute respiratory syndrome coronavirus 2, UniProt P0DTC9); assay: Cell-free LLPS assay, N-protein:vgRNA condensates; assay type: biochemical
T1 construct: His-tag; made in house

[9] = test system: SARS-CoV-2 B1.1 529 BA.1 (Omicron); assay: Cytopathic effect reduction, SARS-CoV-2 B1.1 529 BA.1 (Omicron) in Vero cells; assay type: cell-based; conditions: Severe acute respiratory syndrome coronavirus 2, CPE reduced by 50%, read-out: Antiviral Activity (EC50) B1.1 529 BA.1 (Omicron)
Vero cells = conditions: minimum cytotoxic concentration, microscopically detectable alteration of cell morphology
[10] = Cell growth inhibition in HEL299 cells, Coulter Counter; assay type: cell-based; conditions: human, 3 days of cell growth, read-out: Cytotoxicity Cell Growth (CC50)
Experimental: as §1

TK- VZV strain 07-1 [11] = assay: in vitro; conditions: human
[12] = 20 µM compound, 3 µM N-protein, 6 µM RNA

Structure (SMILES) | EC50 (RSV (Long)) | IC50 [1] | EC50 (TK- VZV strain 07-1 [2]) | CC50 (in vitro) | EC50 [3] | EC50 [4] | Cytotoxicity Cell Morphology (MCC) (HEL299 cells) | EC50 [5] | EC50 (HCoV 229E) | EC50 (HCoV OC43) | EC50 (TK+ VZV strain OKA) | CC50 at 3 days [6] | EC50 (HCoV NL63) | CC50 at 3 days [7] | effect on LLPS / condensates (summary in words) ([8]; 20 µM compound) | EC50 [9] | Cytotoxicity Cell Morphology (MCC) (Vero cells) | further results
COc1ccc(C(OC[C@H]2O[C@@H](n3ccc4nc5cc(O)ccc5n4c3=O)C[C@@H]2O)(c2ccccc2)c2ccc(OC)cc2)cc1 [Compound 3a, 2-((2R,4S,5R)-5-((bis(4-methoxyphenyl)(phenyl)methoxy)methyl)-4-hydroxytetrahydrofuran-2-yl)-7-hydroxybenzo[4,5]imidazo[1,2-c]pyrimidin-1(2H)-one] | 0.67 ± 0.23 µM | 94 ± 3 µM | > 4 µM | > 100 µM | 8.92 ± 6.38 µM | 8.82 ± 0.21 µM | 20 μM | 11.3 ± 3.5 µM | 8.5 ± 0.36 µM | < 0.8 µM | > 4 µM | < 0.8 µM | > 100 µM | > 100 µM | robust LLPS inhibitor | 10.6 ± 0.7 µM |  | EC50 (SARS-CoV-2 (all strains)): ~10 µM; decrease of the average number of droplets [8, 12]: approximately 60%; decrease of the partitioning coefficient (droplet/solution N-protein concentration ratio) [8, 12]: 60–70%; median droplet diameter [8, 12]: 1.1 µm; EC50 ([8]; dose-dependent effect, 3 µM N-protein, 6 µM RNA, read-out: EC50 of inhibition of condensate formation (LLPS)): ≤ 10 µM
COc1ccc(C(OC[C@H]2O[C@@H](n3ccc4nc5cc(O)ccc5n4c3=O)[C@H](O)[C@@H]2O)(c2ccccc2)c2ccc(OC)cc2)cc1 [Compound 3b, 2-((2R,3R,4S,5R)-5-((bis(4-methoxyphenyl)(phenyl)methoxy)methyl)-3,4-dihydroxytetrahydrofuran-2-yl)-7-hydroxybenzo[4,5]imidazo[1,2-c]pyrimidin-1(2H)-one] | 5.7 ± 0.8 µM | 95 ± 4 µM | > 4 µM |  |  | > 20 µM | 20 μM |  | 4.1 ± 2 µM | < 0.8 µM | > 4 µM | < 0.8 µM | > 100 µM | > 20 µM | minor | > 20 µM | 20 μM | 
COc1ccc(C(OC[C@H]2O[C@@H](n3ccc4nc5cc(OC)ccc5n4c3=O)C[C@@H]2O)(c2ccccc2)c2ccc(OC)cc2)cc1 [Compound 7a, 2-((2R,4S,5R)-5-((bis(4-methoxyphenyl)(phenyl)methoxy)methyl)-4-hydroxytetrahydrofuran-2-yl)-7-methoxybenzo[4,5]imidazo[1,2-c]pyrimidin-1(2H)-one] |  |  | 3.28 ± 2.23 µM |  |  | > 20 µM | 100 μM |  |  |  | 8.15 ± 3.59 µM |  |  |  | caused no changes | > 100 µM | >100 μM | CC50 at 3 days [10]: > 100 µM; selectivity ratio (TK- VZV strain 07-1 [11]): > 30
CCC(CC)COC(=O)[C@H](C)N[P@](=O)(OC[C@H]1O[C@@](C#N)(c2ccc3c(N)ncnn23)[C@H](O)[C@@H]1O)Oc1ccccc1 [Remdesivir, reference compound] | 0.02 µM |  |  | ≥ 40 µM | 0.72 ± 0.15 µM | 1.96 ± 1 µM |  | 3.23 ± 0.61 µM | 0.03 µM | 0.03 µM |  | > 10 µM | 0.03 µM | > 10 µM |  | 0.91 ± 0.17 µM | ≥40 μM | 
